Literature values as cited in patent US12594435B2, “Interstitial photodynamic therapy” (Simphotek, Inc., priority 2020, dated 2026).
Like-named read-outs stand apart in the source and are kept apart here. Values belong to the compound of their own block, whether it stands above or below them.

Experiments:
[1] = test system: tumors in mice; conditions: for Threshold [^1O2]dose: superficial PDT
[2] = for β, k4/k2 / ξ photokinetic parameter / σ, k1/(k7[A]): Table 6, Zhu et. al. 2015, Ong et al 2018
[3] = test system: Human prostate; conditions: Davidson et.al., 2009
[4] = test system: experimental tumours; conditions: Mice, Shafirstein et. al., 2018
[5] = test system: experimental tumours; conditions: Rabbits, Shafirstein et. al., 2018
[6] = Zhu et. al., 2015, labeled [^1O2]rx in the publication
[7] = vascular PDT, Sheng et. al., 2020
[8] = surface PDT, Sheng et. al., 2019
[9] = simulation parameter used in Dosie simulations, Examples 3 and 4
[10] = I-PDT with light dose as dose metric

ε, PS extinction coefficient ([2]; 690 nm): BPD (690 nm): 0.0783 cm^−1μM^−1
Compound: benzoporphyrin derivative monoacid ring A [BPD]
Threshold [^1O2]dose ([1]; Kim et. al. 2017): 0.98 ± 012 (Kim et. al. 2017) mM | Threshold [^1O2]dose [1, 6]: 0.72 ± 0.21 (Zhu et. al., 2015) mM | Threshold PDT-dose ([1]; surface PDT, Kim et. al., 2017): 58 ± 12 (Kim et. al., 2017) μM J/cm^2 | Threshold Light Dose [1, 7]: Approx. 40 (vascular, Sheng et. J/cm^2 | Threshold PDT-dose [1, 7]: 7.5 (vascular, Sheng et. al., μM J/cm^2 | β, k4/k2 [2]: BPD: 11.9 μM | ξ photokinetic parameter [2]: BPD: 51.0 × 10^−3 cm^2mW^−1s^−1 | σ, k1/(k7[A]) [2]: BPD: 1.7 × 10^−5 μM^−1

ε, PS extinction coefficient ([2]; 650 nm): mTHPC (650 nm): 0.048 cm^−1μM^−1
Compound: Oc1cccc(-c2c3nc(c(-c4cccc(O)c4)c4ccc([nH]4)c(-c4cccc(O)c4)c4nc(c(-c5cccc(O)c5)c5ccc2[nH]5)CC4)C=C3)c1 [mTHPC]
β, k4/k2 [2]: mTHPC: 8.7 μM | ξ photokinetic parameter [2]: mTHPC: 30.0 × 10^−3 cm^2mW^−1s^−1 | σ, k1/(k7[A]) [2]: mTHPC: 2.97 × 10^−5 μM^−1

ε, PS extinction coefficient ([2]; 630 nm): Photofrin (630 nm): 0.0035 cm^−1μM^−1
Compound: Photofrin
Threshold [^1O2]dose ([1]; Qiu et. al., 2016): > 1.0 (Qiu et. al., 2016) mM | Threshold [^1O2]dose [1, 6]: 0.56 ± 0.26 (Zhu et. al., 2015) mM | Threshold Light Dose [1, 8]: Approx. 100 (Sheng et. al., 2019) J/cm^2 | Threshold PDT-dose [1, 8]: 439 (Sheng et. al., 2019) μM J/cm^2 | β, k4/k2 [2]: Photofrin: 11.9 μM | ξ photokinetic parameter [2]: Photofrin: 3.7 × 10^−3 cm^2mW^−1s^−1 | σ, k1/(k7[A]) [2]: Photofrin: 7.6 × 10^−5 μM^−1 | β [2, 9]: 11.9 | δ, low concentration correction [2, 9]: 33 | ξ [2, 9]: 3.7E-03 | σ [2, 9]: 7.6E-05 | Threshold Fluence Rate φT [4, 10]: 8.4 (Shafirstein et. al., 2018) mW/cm^2 | Threshold Light Dose ([4]; I-PDT): ≥45 (Shafirstein et. al., 2018) J/cm^2 | Threshold Fluence Rate φT [5, 10]: 16.5 (Shafirstein et. al., 2018) mW/cm^2 | Threshold Light Dose ([5]; I-PDT): ≥45 (Shafirstein et. al., 2018) J/cm^2

More lines, now with the values behind:

Compound: CC[C@H]1c2cc3[n-]c4c(c3C)C(=O)[C@H](C(=O)OC)c4c3nc(cc4[n-]c(cc(n2)[C@@H]1C)c(C(C)=O)c4C)[C@@H](C)[C@@H]3CCC(=O)O.[Pd+2] [Tookad]
β, k4/k2 [2]: Tookad: 11.9 μM | ξ photokinetic parameter [2]: Tookad: 122 × 10^−3 cm^2mW^−1s^−1 | σ, k1/(k7[A]) [2]: Tookad: 2.6 × 10^−5 μM^−1 | Threshold Light Dose [3]: >23 (Davidson et.al., 2009) J/cm^2

Compound: 2-(1-Hexyloxyethyl)-2-devinyl pyropheophorbide [HPPH]
Threshold [^1O2]dose ([1]; Penjweini et. al., 2016): 0.98 ± 0.11 (Penjweini et. al., mM | Threshold PDT-dose ([1]; surface PDT, Penjweini et. al., 2016): 52.62 ± 14.9 (Penjweini et. al., μM J/cm^2
